In patent US11098044B2, “Imidazopyridinyl compounds and use thereof for treatment of neurodegenerative disorders” (1ST Biotherapeutics, Inc., priority 2019, dated 2021):

How the values were obtained:
Format in all cases: biochemical
LRRK2 G2019S = LRRK2 G2019S (Homo sapiens (Human), UniProt Q5S007, G2019S); assay: LRRK2 G2019S Kinase Assay (Adapta); details: 100 μM ATP, LRRKtide substrate; read-out: LRRK2_G2019S IC50
Summary of the method: (§1)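 Adapta TR-FRET kinase assay with LRRKtide substrate in 50 mM Tris pH 8.5, 0.01% BRIJ-35, 10 mM MgCl2, 1 mM EGTA, 0.02% NaN3. ATP at Km: 70 μM for WT LRRK2, 100 μM for G2019S. Reaction 1 h at room temperature; after 60 min with detection mix, 665/615 nm emission ratio read.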

[1] = molecular target: c-Abl (His-tagged recombinant human ABL1) (Homo sapiens (Human), UniProt P00519); assay: c-abl Kinase Assay (ADP-Glo); details: ATP (25 μM), Abltide substrate
Summary of the method: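 His-tagged human ABL1 (0.25 ng/μl), Abltide (0.01 μg/μl) and ATP (25 μM), each at its added concentration, reacted with compound (0.5% DMSO) for 30 min at 30 °C. Buffer was 50 mM HEPES pH 7.5, 10 mM MgCl2, 1 mM EGTA, 0.05% BSA, 0.01% Triton X-100, 2 mM DTT. ADP formed was read by ADP-Glo luminescence, and IC50 was fitted from percent inhibition across concentrations.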

LRRK2 (WT) = LRRK2 (WT) (Homo sapiens (Human), UniProt Q5S007); assay: LRRK2 Kinase Assay (Adapta); details: 70 μM ATP, LRRKtide substrate
Summary of the method: as §1

Chain of LRRK2 (WT) (Q5S007 whole entry): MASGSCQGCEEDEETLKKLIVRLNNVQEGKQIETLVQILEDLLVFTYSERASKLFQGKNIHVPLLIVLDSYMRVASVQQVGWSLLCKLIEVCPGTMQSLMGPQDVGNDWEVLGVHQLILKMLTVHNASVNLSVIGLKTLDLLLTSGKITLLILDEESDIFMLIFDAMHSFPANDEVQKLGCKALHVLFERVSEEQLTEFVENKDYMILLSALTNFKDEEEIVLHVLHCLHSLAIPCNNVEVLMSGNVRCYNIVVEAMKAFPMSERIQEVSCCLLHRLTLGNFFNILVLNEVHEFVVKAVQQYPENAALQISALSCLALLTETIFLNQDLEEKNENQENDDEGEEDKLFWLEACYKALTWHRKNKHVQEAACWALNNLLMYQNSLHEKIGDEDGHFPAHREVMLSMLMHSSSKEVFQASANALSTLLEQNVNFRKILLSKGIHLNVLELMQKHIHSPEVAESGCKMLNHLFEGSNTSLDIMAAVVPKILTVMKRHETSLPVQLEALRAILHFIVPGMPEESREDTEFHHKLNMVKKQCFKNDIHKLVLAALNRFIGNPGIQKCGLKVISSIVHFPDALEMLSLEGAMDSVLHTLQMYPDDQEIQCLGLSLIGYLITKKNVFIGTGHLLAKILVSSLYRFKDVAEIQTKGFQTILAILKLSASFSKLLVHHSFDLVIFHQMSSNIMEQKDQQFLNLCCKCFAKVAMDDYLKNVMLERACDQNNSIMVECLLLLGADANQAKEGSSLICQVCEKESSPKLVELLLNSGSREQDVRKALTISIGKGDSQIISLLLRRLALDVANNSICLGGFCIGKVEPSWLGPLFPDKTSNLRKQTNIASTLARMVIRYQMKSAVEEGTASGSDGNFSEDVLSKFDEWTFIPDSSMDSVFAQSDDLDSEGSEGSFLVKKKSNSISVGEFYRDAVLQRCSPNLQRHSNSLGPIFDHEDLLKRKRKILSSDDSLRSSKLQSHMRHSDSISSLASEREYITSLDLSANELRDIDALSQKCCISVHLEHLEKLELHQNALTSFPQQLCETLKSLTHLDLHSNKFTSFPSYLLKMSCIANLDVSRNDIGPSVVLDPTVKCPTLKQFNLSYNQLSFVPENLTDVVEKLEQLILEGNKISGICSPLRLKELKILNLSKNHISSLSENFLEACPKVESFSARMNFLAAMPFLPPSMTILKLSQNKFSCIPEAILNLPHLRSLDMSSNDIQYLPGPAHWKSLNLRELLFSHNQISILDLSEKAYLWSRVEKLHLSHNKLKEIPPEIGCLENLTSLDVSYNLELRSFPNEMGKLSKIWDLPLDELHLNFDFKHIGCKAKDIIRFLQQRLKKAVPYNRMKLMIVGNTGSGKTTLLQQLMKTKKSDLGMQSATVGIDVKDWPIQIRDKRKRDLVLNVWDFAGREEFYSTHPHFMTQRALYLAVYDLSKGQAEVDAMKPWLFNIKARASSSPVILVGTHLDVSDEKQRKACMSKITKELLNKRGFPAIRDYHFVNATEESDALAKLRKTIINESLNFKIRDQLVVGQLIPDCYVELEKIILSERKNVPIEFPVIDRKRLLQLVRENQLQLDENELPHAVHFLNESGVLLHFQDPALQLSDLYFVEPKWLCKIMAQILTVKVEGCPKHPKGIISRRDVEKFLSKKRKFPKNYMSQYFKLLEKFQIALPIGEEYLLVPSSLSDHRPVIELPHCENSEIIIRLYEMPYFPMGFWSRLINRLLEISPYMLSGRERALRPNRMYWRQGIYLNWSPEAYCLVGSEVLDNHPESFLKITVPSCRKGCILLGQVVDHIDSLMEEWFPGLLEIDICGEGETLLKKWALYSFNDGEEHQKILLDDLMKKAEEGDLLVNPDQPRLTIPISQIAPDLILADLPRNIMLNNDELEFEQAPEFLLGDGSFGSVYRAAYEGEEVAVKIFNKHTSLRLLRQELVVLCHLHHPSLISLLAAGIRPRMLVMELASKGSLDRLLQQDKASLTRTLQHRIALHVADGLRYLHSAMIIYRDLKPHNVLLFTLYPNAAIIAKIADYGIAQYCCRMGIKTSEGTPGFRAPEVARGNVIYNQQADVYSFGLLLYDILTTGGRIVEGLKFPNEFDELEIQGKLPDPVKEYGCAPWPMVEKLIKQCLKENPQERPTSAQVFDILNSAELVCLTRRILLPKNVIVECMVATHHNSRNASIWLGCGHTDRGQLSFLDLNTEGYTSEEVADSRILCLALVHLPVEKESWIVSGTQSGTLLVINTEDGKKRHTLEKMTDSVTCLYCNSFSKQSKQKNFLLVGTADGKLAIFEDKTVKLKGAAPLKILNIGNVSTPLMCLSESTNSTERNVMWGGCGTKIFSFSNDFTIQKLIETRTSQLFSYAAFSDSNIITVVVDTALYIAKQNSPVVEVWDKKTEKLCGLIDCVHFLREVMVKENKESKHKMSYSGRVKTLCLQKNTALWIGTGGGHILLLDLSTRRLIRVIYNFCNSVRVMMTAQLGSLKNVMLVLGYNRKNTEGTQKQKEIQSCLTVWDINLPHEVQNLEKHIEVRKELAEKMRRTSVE
Chain of LRRK2 G2019S (Q5S007 whole entry G2019S): as the sequence (Q5S007 whole entry) above, with G2019S counted along it
Chain of c-Abl (His-tagged recombinant human ABL1) (P00519 whole entry): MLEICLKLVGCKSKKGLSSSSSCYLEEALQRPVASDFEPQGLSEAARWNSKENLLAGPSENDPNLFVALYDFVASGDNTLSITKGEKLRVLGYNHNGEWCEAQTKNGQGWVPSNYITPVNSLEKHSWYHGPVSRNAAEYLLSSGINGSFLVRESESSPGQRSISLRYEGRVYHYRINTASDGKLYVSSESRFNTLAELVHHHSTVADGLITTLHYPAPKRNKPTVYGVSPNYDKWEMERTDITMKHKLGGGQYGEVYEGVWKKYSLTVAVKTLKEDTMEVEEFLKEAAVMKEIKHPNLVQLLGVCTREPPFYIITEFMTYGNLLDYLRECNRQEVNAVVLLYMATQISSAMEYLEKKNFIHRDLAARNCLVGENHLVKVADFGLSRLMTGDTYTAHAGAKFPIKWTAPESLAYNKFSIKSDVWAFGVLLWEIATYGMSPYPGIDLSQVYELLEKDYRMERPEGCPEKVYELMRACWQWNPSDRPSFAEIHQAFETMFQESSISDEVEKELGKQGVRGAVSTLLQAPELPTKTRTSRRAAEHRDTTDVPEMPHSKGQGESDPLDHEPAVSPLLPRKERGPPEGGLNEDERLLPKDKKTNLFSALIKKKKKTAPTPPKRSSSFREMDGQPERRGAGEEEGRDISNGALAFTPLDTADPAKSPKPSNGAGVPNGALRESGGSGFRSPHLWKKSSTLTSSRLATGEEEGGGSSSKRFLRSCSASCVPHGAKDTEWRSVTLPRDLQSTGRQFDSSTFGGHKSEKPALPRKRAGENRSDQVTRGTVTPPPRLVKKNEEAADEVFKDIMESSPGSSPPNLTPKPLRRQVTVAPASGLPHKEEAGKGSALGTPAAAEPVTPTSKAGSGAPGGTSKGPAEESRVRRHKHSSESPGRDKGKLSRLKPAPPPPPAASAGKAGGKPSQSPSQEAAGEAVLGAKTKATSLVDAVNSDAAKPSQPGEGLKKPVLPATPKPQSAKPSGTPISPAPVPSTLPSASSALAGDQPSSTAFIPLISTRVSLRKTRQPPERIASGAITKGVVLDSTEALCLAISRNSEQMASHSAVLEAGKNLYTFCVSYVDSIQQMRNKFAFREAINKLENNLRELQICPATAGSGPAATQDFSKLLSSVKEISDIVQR

CNCc1c(F)cccc1-c1ccc2nc(NC(=O)[C@@H]3C[C@@H]3F)cn2c1 [Example 80, (1S,2S)-2-fluoro-N-(6-(3-fluoro-2-((methylamino)methyl)phenyl)imidazo[1,2-a]pyridin-2-yl)cyclopropanecarboxamide]
IC50 (LRRK2 G2019S): > 1 µM
IC50 [1]: > 1 µM
IC50 (LRRK2 (WT)): > 1 µM

CC(C)NCc1c(F)cccc1-c1ccc2nc(NC(=O)[C@@H]3C[C@@H]3F)cn2c1 [Example 81, (1S,2S)-2-fluoro-N-(6-(3-fluoro-2-((isopropylamino)methyl)phenyl)imidazo[1,2-a]pyridin-2-yl)cyclopropanecarboxamide]
IC50 (LRRK2 G2019S): > 1 µM
IC50 [1]: > 1 µM
IC50 (LRRK2 (WT)): > 1 µM

COCCOCc1c(F)cccc1-c1ccc2nc(NC(=O)[C@@H]3C[C@@H]3F)cn2c1 [Example 82, (1S,2S)-2-fluoro-N-(6-(3-fluoro-2-((2-methoxyethoxy)methyl)phenyl)imidazo[1,2-a]pyridin-2-yl)cyclopropanecarboxamide]
IC50 (LRRK2 G2019S): 0.101 to 1 µM
IC50 [1]: 0.01 to 0.1 µM
IC50 (LRRK2 (WT)): > 1 µM

O=C(Nc1cn2cc(-c3cccc(F)c3COCCO)ccc2n1)[C@@H]1C[C@@H]1F [Example 83, (1S,2S)-2-fluoro-N-(6-(3-fluoro-2-((2-hydroxyethoxy)methyl)phenyl)imidazo[1,2-a]pyridin-2-yl)cyclopropanecarboxamide]
IC50 (LRRK2 G2019S): > 1 µM
IC50 [1]: 0.101 to 1 µM
IC50 (LRRK2 (WT)): 0.101 to 1 µM

CN(C)Cc1c(F)cccc1-c1ccc2nc(NC(=O)[C@@H]3C[C@@H]3F)cn2c1 [Example 84, (1S,2S)—N-(6-(2-((dimethylamino)methyl)-3-fluorophenyl)imidazo[1,2-a]pyridin-2-yl)-2-fluorocyclopropanecarboxamide]
IC50 (LRRK2 G2019S): > 1 µM
IC50 [1]: > 1 µM
IC50 (LRRK2 (WT)): > 1 µM
